We go through four compounds from ChEMBL document CHEMBL1201862, “PubChem BioAssay data set” (2004).

One assay deals with T1, Leucine aminopeptidase (Plasmodium falciparum 3D7, UniProt Q8IL11).
T1 sequence (Q8IL11 whole entry): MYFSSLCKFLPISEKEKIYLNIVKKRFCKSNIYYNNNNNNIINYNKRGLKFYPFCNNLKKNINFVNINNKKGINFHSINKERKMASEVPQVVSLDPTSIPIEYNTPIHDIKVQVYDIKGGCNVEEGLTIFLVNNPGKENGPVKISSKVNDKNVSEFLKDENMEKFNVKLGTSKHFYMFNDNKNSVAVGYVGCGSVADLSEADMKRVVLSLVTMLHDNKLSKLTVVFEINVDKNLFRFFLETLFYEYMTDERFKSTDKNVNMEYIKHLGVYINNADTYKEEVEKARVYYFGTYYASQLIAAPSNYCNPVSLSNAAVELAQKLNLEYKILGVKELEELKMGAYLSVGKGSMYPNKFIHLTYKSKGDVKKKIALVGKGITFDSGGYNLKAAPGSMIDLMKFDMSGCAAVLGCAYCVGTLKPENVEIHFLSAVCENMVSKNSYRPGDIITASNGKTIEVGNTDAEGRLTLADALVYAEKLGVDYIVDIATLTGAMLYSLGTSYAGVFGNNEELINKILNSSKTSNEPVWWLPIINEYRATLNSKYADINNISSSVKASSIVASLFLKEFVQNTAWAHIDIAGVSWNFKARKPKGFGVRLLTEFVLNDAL
Briefly: P. falciparum M17LAP inhibitors, primary screen, biochemical, fluorogenic H-Leu-NHMec substrate, 1536-well (AID 1619). It is filed as functional.

Assay [1] concerns the target Intestinal-type alkaline phosphatase (Homo sapiens, UniProt P09923). Briefly: inhibition of human intestinal alkaline phosphatase – biochemical, dose response (AID 488876). It is filed as functional.
Assay [2] addresses T2, Alkaline phosphatase, tissue-nonspecific isozyme (Homo sapiens, UniProt P05186).
T2 sequence (P05186 whole entry): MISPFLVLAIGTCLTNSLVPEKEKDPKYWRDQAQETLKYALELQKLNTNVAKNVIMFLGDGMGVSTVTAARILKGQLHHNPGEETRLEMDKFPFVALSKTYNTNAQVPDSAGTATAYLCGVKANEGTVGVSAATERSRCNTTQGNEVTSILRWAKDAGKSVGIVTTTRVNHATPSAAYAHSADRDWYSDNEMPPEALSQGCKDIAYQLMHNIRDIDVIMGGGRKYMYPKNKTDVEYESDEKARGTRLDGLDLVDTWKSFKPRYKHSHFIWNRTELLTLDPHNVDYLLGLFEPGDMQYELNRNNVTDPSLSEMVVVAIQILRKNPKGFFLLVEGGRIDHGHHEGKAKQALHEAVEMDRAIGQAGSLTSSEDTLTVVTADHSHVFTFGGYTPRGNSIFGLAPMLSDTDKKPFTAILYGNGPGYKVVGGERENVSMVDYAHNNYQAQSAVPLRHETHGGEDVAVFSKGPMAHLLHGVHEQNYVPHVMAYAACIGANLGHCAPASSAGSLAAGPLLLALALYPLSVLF
Nature of the assay: TNAP enzyme inhibition by screening hits, dose response, selectivity assay for mouse IAP inhibitor project, biochemical, human TNAP, uHTS hits (AID 488906). It is filed as functional.

The target of assay [3] is Induced myeloid leukemia cell differentiation protein Mcl-1 (Homo sapiens, UniProt Q07820). Briefly: blockers of MCL1 binding to BIM peptide – biochemical, fluorescence polarization, BIM-BH3 peptide, 1536-well, dose response (AID 2217).
The target in assay [4] is Intestinal-type alkaline phosphatase (Mus musculus, UniProt P24822). Nature of the assay: PubChem AID 488785. It is filed as functional.
Assay [5] is described as follows: fluconazole-exposed Candida albicans growth modulators – fluorescence, retest, confirmation (AID 2467). Type of assay: functional, cell-based.
For assay [6], the target named is T3, Histone-lysine N-methyltransferase NSD2 (Homo sapiens, UniProt O96028).
T3 sequence (O96028 whole entry): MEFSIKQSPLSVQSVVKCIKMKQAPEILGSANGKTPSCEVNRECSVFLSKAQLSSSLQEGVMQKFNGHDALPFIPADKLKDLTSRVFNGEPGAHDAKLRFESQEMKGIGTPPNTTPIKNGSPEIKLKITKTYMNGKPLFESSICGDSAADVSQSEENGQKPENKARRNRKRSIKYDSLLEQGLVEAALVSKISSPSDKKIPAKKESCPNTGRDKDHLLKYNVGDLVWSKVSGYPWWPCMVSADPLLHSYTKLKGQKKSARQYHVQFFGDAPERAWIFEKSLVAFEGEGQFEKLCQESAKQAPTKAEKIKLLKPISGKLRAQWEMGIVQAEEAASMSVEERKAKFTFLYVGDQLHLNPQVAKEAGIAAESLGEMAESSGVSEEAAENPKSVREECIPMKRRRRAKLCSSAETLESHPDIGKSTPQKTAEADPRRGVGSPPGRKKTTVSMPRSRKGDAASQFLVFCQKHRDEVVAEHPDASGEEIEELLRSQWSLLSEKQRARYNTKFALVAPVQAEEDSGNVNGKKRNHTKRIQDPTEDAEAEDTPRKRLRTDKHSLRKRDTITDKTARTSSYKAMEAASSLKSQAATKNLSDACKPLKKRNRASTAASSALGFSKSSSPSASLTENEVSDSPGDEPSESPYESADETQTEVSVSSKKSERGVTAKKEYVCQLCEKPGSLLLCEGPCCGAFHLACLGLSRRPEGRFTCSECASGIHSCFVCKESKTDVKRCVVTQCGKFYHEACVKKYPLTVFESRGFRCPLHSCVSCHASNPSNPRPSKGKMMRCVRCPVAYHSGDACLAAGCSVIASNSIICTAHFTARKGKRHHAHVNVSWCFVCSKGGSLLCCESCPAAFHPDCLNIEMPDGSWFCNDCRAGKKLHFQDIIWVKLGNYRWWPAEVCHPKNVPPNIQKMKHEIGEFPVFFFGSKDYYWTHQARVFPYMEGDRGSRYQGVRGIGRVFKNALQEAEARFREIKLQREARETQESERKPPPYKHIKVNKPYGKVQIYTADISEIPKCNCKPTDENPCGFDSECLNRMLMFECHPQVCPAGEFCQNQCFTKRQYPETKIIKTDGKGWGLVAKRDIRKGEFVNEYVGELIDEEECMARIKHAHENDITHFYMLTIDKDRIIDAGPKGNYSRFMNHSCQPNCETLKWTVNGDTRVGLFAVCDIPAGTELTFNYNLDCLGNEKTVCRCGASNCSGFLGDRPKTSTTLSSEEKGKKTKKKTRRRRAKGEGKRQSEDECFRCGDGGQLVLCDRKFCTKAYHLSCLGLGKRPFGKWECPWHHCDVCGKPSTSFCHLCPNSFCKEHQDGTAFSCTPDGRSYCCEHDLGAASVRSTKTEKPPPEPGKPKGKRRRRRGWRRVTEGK
It is filed as biochemical.

The nature of assay [7]: NIH-3T3 fibroblast cytotoxicity, dose response, cytotoxicity control, cell-based, fluorescence, Alamar Blue, secondary assay (AID 2327).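 Also: NIH-3T3 mouse fibroblasts cultured with fluconazole at 8 µg/mL.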 Type of assay: functional.
In another assay the target is Albumin (Bos taurus, UniProt P02769). Briefly: Counterscreen for inhibitors of T-cell receptor (TCR)-CD3 interaction: Fluorescence-based biochemical high throughput dose response assay to identify inhibitors of T-cell receptor (TCR)-CD3 interaction using a TAMRA-labeled BSA probe. Type of assay: functional.
The target in the next assay is Bcl-2-like protein 1 (Homo sapiens, UniProt Q07817). Briefly: blockers of BCLXL peptide binding – biochemical, fluorescence polarization, 1536-well, selectivity assay for MCL1 inhibitor project, dose response (AID 2218).
For assay [8], the target named is T4, Estrogen receptor beta (Homo sapiens, UniProt Q92731). Briefly: blockers of SRC-3 recruitment to ERβ – biochemical, ELISA, streptavidin-HRP readout, orthogonal assay, confirmation (AID 1060).
Assay [9] deals with T4, Estrogen receptor beta.
The next assay addresses Large T antigen (Simian virus 40, UniProt P03070). It is filed as functional, Betapolyomavirus macacae.
Assay [10] is described as follows: alpha-synuclein stem-loop luciferase translation blockers – H4 neuroglioma cells, luminescence, confirmation (AID 1988). It is filed as functional, cell-based.
The target in assay [11] is Neuropeptide Y receptor type 2 (Homo sapiens, UniProt P49146). It is filed as functional, cell-based.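 Also: HEK293 cells expressing the receptor and a CNG channel; stimulus was NPY near EC95 followed by isoproterenol to raise cAMP; antagonist potency measured as restoring cAMP signal that NPY suppresses.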
Assay [12] is described as follows: luciferase reporter signal suppression in cells – H4 neuroglioma cells, luminescence, dose response (AID 1990). Type of assay: functional, cell-based.
Assay [13] addresses Neuropeptide Y receptor type 1 (Homo sapiens, UniProt P25929). It is filed as functional.
Assay [14] in a line: Luminescence Cell-Based Dose Response HTS to Identify Inhibitors of 5'UTR Stem-Loop Driven Prion Protein mRNA Translation in H4 Neuroglioblastoma Cells. [Related pubchem assays: 1827 (Project Summary), 1813 (Primary HTS)]. Type of assay: functional.
In assay [15] the target is T5, Mannose-6-phosphate isomerase (Homo sapiens, UniProt P34949).
T5 sequence (P34949 whole entry): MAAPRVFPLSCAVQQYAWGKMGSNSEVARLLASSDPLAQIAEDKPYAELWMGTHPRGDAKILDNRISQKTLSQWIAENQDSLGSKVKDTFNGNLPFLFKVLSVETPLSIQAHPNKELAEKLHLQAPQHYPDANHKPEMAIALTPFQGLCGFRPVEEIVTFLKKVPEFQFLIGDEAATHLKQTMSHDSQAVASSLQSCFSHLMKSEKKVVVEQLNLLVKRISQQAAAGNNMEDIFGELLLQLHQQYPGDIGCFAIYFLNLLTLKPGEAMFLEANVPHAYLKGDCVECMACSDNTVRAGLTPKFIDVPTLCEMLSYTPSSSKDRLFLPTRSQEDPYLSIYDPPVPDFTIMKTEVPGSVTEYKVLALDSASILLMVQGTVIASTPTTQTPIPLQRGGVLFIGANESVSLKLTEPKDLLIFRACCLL
Nature of the assay: MPI enzyme activity inhibition – biochemical, fluorescence intensity, coupled assay, primary screen (AID 1209).

Assay [16] can be described thus: decrease of insulin promoter-GFP reporter – imaging, high-content screening, mouse beta cells (AID 1628). It is filed as functional. The following applies: MIN6.
The nature of assay [17]: MIN6 cell viability loss – mouse insulinoma, cytotoxicity control, dose response (AID 2122).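 Also: confirmatory high-throughput counterscreen run to flag cytotoxic compounds.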 It is filed as functional.
The target of a further assay is T6, Bcl-2-like protein 10 (Homo sapiens, UniProt Q9HD36).
T6 sequence (Q9HD36 whole entry): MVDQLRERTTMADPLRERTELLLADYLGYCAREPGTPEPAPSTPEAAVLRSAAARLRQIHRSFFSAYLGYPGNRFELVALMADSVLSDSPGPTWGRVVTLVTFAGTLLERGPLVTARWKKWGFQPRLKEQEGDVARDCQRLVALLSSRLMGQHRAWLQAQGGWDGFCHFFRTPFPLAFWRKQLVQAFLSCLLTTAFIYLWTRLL
Nature of the assay: Concentration-response of Bcl-B inhibitors by biochemical FP with TR3 (AID 1243). Type of assay: functional.

SMILES strings stand for the structures. Activity calls are given as the source filed them. A value given as a limit tells only on which side of the number the result lay.

T4 sequence (Q92731 whole entry): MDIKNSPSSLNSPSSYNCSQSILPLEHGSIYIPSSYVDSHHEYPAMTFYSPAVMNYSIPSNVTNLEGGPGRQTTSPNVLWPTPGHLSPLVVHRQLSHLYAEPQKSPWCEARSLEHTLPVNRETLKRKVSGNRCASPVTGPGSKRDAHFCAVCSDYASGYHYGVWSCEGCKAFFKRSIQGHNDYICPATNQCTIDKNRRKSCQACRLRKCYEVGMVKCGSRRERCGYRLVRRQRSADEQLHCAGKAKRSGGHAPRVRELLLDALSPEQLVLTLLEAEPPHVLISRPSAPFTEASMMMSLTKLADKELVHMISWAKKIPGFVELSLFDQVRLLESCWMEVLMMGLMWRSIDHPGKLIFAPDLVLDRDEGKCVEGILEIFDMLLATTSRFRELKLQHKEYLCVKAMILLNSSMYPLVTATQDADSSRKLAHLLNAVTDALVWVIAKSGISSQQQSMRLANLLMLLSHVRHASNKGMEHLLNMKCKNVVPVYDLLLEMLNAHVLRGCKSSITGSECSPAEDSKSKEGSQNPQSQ
Sequence of Large T antigen (P03070 whole entry): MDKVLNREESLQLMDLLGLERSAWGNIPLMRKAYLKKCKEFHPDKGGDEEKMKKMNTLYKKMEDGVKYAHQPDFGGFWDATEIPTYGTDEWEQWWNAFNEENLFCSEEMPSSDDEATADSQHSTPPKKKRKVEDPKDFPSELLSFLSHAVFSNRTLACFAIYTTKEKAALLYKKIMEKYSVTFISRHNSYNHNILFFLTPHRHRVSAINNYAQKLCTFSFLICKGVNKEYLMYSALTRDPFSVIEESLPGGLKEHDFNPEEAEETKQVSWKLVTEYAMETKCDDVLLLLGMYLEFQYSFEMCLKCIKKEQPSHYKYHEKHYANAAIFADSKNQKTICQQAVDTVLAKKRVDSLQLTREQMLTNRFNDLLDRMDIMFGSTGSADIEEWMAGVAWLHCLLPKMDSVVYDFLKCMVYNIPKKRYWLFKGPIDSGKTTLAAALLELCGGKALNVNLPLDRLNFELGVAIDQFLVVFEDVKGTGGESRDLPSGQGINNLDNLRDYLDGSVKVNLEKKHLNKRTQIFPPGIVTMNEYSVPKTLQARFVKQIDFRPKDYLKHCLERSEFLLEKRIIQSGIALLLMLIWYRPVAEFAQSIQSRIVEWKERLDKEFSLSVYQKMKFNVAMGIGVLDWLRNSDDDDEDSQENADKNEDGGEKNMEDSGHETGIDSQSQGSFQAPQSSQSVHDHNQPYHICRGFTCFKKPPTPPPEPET
Sequence of Neuropeptide Y receptor type 2 (P49146 whole entry): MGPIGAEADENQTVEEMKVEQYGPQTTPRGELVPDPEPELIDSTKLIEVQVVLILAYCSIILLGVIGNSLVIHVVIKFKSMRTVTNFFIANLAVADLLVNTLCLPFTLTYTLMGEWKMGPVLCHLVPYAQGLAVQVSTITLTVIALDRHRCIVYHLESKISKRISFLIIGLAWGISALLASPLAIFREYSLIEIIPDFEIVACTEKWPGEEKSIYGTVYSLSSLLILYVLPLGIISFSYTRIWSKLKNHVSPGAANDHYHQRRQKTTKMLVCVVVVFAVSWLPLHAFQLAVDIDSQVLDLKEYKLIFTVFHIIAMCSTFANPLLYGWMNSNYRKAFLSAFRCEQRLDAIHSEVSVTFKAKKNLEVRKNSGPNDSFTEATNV
Sequence of Intestinal-type alkaline phosphatase (Homo sapiens, UniProt P09923) (P09923 whole entry): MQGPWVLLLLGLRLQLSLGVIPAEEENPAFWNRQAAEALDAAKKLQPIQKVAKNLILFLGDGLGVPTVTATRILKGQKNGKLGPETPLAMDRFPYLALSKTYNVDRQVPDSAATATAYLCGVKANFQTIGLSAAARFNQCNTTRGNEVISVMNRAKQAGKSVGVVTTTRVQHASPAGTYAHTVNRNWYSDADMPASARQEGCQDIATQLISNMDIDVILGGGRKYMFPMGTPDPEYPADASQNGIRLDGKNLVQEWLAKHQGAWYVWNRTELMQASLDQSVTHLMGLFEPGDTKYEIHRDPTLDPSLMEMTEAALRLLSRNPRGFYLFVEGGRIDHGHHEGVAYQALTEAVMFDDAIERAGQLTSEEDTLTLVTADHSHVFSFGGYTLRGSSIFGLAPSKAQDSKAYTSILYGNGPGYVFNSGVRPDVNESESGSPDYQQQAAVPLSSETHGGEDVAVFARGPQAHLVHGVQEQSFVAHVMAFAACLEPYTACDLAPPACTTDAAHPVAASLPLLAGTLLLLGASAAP
Sequence of Neuropeptide Y receptor type 1 (P25929 whole entry): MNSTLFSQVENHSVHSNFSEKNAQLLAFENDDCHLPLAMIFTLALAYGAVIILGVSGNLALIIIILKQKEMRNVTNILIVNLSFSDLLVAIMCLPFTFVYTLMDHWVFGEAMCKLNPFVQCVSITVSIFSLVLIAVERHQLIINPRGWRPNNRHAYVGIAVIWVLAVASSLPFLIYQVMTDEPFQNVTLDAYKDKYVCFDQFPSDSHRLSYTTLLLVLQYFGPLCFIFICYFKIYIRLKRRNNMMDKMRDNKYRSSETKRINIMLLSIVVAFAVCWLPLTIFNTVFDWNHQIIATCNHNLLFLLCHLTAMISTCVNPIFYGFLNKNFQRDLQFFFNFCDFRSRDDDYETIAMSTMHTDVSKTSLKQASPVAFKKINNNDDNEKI
Sequence of Induced myeloid leukemia cell differentiation protein Mcl-1 (Q07820 whole entry): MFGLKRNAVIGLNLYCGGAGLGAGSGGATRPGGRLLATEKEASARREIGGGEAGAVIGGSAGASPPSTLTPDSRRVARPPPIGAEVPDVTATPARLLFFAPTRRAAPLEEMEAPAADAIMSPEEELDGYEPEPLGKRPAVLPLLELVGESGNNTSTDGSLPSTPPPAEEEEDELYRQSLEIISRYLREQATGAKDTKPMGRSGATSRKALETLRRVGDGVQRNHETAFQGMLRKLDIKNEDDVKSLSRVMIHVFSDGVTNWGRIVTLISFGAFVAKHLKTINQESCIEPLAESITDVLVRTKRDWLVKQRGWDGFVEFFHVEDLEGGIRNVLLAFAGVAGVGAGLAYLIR
Sequence of Intestinal-type alkaline phosphatase (Mus musculus, UniProt P24822) (P24822 whole entry): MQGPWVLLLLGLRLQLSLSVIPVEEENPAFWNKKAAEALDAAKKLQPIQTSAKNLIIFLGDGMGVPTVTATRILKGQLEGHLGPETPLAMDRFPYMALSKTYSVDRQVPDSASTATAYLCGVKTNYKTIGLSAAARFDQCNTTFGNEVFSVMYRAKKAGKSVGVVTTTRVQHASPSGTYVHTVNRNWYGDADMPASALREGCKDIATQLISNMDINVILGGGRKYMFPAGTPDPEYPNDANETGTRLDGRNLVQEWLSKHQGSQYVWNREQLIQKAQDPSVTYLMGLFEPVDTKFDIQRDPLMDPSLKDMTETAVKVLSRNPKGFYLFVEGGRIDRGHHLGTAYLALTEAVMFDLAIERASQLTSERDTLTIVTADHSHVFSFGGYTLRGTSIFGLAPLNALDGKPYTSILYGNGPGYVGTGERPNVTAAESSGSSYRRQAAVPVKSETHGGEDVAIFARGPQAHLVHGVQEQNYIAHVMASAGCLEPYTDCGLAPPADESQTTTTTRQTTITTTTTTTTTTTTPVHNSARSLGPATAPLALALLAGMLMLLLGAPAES
Sequence of Bcl-2-like protein 1 (Q07817 whole entry): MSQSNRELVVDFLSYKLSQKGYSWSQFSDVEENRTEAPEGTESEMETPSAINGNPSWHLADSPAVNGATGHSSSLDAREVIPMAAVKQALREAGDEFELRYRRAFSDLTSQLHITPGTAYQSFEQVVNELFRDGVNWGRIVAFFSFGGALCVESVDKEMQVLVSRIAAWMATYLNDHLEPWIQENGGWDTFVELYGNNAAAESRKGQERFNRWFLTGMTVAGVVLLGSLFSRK
Sequence of Albumin (P02769 whole entry): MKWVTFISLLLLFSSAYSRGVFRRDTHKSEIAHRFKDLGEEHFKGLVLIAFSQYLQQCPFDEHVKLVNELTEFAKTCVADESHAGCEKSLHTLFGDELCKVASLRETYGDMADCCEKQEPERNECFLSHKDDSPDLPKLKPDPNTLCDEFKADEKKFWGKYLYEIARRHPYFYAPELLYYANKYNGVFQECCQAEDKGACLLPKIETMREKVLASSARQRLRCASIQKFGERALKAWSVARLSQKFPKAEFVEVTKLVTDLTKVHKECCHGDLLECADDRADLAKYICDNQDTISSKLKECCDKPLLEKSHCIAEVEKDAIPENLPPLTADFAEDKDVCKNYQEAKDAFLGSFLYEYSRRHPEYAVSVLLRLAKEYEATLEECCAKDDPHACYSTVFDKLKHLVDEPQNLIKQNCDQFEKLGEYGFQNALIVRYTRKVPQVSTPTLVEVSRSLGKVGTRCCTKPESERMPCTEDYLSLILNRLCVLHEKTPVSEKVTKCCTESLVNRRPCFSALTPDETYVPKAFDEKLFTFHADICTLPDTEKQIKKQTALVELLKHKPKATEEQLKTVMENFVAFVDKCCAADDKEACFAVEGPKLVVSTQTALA

As to `CCn1c(SCC(=O)c2ccc(O)c(O)c2)nnc1-c1ccccc1OC`, the 50% inhibitory concentration (IC50) on Leucine aminopeptidase is 24.4 µM (active); in assay [1] it was > 100 µM (inactive); in assay [2], > 100 µM (inactive); in assay [3] it was 37.4 µM (not active); in [4] it was 1.43 µM (active); at Albumin, > 94.1 µM (inactive). Moreover, the IC50 on Bcl-2-like protein 1 is > 109 µM (not active); against Estrogen receptor beta [8], 93.8 µM (not active); on Estrogen receptor beta [9], 5.06 µM (active); at Large T antigen, 7.83 µM (active). Also, the EC50 is > 38 µM (not active) in [5] and > 160 µM (inactive) in [7]. For the same compound, the AC50 in [6] was 9.05 µM (active).

On to `C/C=C(/C)C(=O)O[C@@H]1c2c(ccc3ccc(=O)oc23)O[C@@H]1C(C)(C)OC(=O)/C(C)=C\C`, for which the 50% effective concentration (EC50) in assay [10] is > 120 µM (not active); in [12] it was 15.2 µM (active); in assay [14], > 120 µM (not active). The concentration for half-maximal inhibition (IC50) in assay [11] is 5.06 µM (active); in [13], 5.85 µM (active).

On to `Cc1ccc(Nc2nc(-c3ccc(O)c(O)c3)cs2)nc1`, for which the IC50 in assay [15] is 48.6 µM (active); in assay [16] it was 6.26 µM (active); in assay [17], 3.85 µM (active); at Large T antigen, 12.3 µM (active).

As to `COc1ccc(Nc2ccc(N)cc2)cc1`, the EC50 on Bcl-2-like protein 10 is 7.22 µM (active).
